Several values for one entry are separate records, joined by “and”; a condition that tells them apart may be missing. Equal values may be shown once. Read-outs that look alike come from different tables or passages of the source.
T1: F-IX-activating enzyme (Homo sapiens, UniProt P08246)
T1 construct: 1-219; from tissue; host or cells: erythrocyte membranes (crude surfactant extract)
T1 sequence (P08246 30-248): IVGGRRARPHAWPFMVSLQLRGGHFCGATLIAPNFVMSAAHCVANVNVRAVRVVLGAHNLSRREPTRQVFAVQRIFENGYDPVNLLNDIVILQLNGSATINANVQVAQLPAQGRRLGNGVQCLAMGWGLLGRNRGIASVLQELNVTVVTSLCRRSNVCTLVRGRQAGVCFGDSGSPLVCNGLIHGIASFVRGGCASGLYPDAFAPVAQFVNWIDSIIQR

T2: factor IX-activating protein (erythrocyte membrane extract) (Homo sapiens, UniProt P08246)
T2 construct: 1-219; from tissue; host or cells: erythrocyte membranes (surfactant extract / chromatography fractions)
T2 sequence (P08246 30-248): T1 sequence (P08246 30-248)

B1: soybean trypsin inhibitor (protein)
chain: DFVLDNEGNPLENGGTYYILSDITAFGGIRAAPTGNERCPLTVVQSRNELDKGIGTIISSPYRIRFIAEGHPLSLKFDSFAVIMLCVGIPTEWSVVEDLPEGPAVKIGENKDAMDGWFRLERVSDDEFNNYKLVFCPQQAEDDKCGDIGISIDHDDGTRRLVVSKNKPLVVQFQKLDKESL

What was measured:
[1] = target: T1, F-IX-activating enzyme; assay: Assay of inhibitor effect: fluorogenic substrate Suc(OMe)-Ala-Ala-Pro-Val-MCA with crude enzyme extract; type: biochemical
Description: Relative activity of the enzyme is a ratio of the fluorogenic intensity of the mixture of a fluorogenic synthetic substrate (Suc(OME)-Ala-Ala-Pro-Val-MCA), specific for elastase, the enzyme and inhibitor or antibody to that of the mixture of the fluorogenic substrate and enzyme not containing inhibitor or antibody (control).
To measure the fluorescence intensity of a mixture of inhibitor and the enzyme or elastase, 3 μl of 2 mM fluorogenic synthetic substrate, 2 μl of the enzyme or elastase (concentration: 0.5 mU) and inhibitor or antibody were added to 190 μl HEPES buffer. After incubating the mixture for 30 min at 37° C., 100 μl of the incubated mixture was added to 2 ml of HEPES buffer and the fluorescence intensity was measured using a fluorescence spectrophotometer at λex=380 nm and λem=460 nm.
In the experiments, a crude extract with enzymatic activity, before subjecting to anion-exchange chromatography, was used.

[2] = target: T2, factor IX-activating protein (erythrocyte membrane extract); assay: Activation of factor IX by the erythrocyte membrane extract, examined by SDS-PAGE; type: biochemical; conditions: inhibitor added to solution containing the extract
Description: 25 μg of pure factor IX (Enzyme Res. Lab.) was dissolved in 50 μl of HEPES buffer, and was mixed with washed erythrocytes (hematocrit: about 40%). 10 μl of 26 mM CaCl2 was added to the suspension, and the mixture was incubated at 37° C. for 30 minutes, and then 30 μl of 0.1 M EDTA was added to the suspension to stop the reaction. The suspension was centrifuged to completely remove erythrocytes, and the supernatant was subjected to SDS-PAGE and Western blot analysis to examine whether the coagulation factor was activated or not. 7.5 to 15% gradient gel was used, and electrophoresis was performed at a constant current of 20 mA in the presence of 0.1% SDS. Protein bands were stained for 3 hours with a 50% ethanol (v/v)/7% acetic acid solution containing 0.25% (w/v) Coomassie brilliant blue R-250 (CBB). When activated factor IX was detected by SDS-PAGE, immunostaining was performed to confirm that the resulting band was of activated coagulation factor IX. In the immunostaining procedures, the gel subjected to electrophoresis was buffered using Towbin buffer (25 mM Tris-HCl (pH 8.3), 192 mM glycin, 20% (v/v) methanol, 0.1% SDS) for 15 minutes, followed by transferring to a polyvinylidene difluoride (PVDF) membrane under conditions of 15V and 150 mA. […]

[3] = material concentration 1 mM, 30 min at 37° C., control without material = 100.0

| Molecule | Relative activity of the enzyme (%) [1, 3] | also measured |
| --- | --- | --- |
| [Ca+2].[Cl-].[Cl-] [CaCl2] | 156.4% | – |
| c1cnc2c(c1)ccc1cccnc12 [Phenanthroline, reference compound] | 28.8% | – |
| O=S(=O)(F)Cc1ccccc1 [PMSF, reference compound] | 19.2% | – |
| O=C(O)CN(CCN(CC(=O)O)CC(=O)O)CC(=O)O [EDTA, reference compound] | 74.5% | Relative activity of the enzyme (%) ([1]; material concentration 10 mM, 30 min at 37° C., control without material = 100.0): 27.0% |
| [Cl-].[Cl-].[Mg+2] [MgCl2] | 100.5% | – |
| [Cl-].[Na+] [NaCl] | – | Relative activity of the enzyme (%) [1]: 95.5% and 84.3% |
| CC(=O)N[C@@H](CC(C)C)C(=O)N[C@@H](CC(C)C)C(=O)N[C@H](C=O)CCCNC(=N)N [Leupeptin, reference compound] | 78.5% | – |
| B1 | – | activation of factor IX by the extract [2]: inhibited; Relative activity of the enzyme (%) ([1]; material concentration 1%, 30 min at 37° C., control without material = 100.0): 65.1% |

Source: patent publication US20040223967A1, “Blood coagulation factor-activating protein and antibody thereto” (RIKEN, priority 2000, published 2004)
